Reference: ChEMBL document CHEMBL1201862, “PubChem BioAssay data set” (2004)
Calls of active or inactive are those of the source.

Key:
[1] = alpha-synuclein stem-loop luciferase translation blockers – H4 neuroglioma cells, luminescence, confirmation (AID 1988); assay type: functional, cell-based
[2] = luciferase reporter signal suppression in cells – H4 neuroglioma cells, luminescence, dose response (AID 1990); assay type: functional, cell-based
[3] = molecular target: Luciferin 4-monooxygenase (Photinus pyralis, UniProt P08659); assay: inhibition of purified Photinus pyralis luciferase – biochemical, luminescence, dose response (AID 1891)
[4] = alpha-synuclein stem-loop translation blockers – luminescence, H4 neuroglioblastoma cells, dose confirmation, confirmation (AID 2454); assay type: functional, cell-based;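 further: H4 neuroglioblastoma cells carrying an alpha-synuclein 5'UTR luciferase reporter; potency for inhibition of the luciferase signal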
[5] = luciferase reporter signal reduction – luminescence, H4-C neuroglioblastoma cells, dose response (AID 2458); assay type: functional, cell-based;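 further: H4 neuroglioblastoma cells stably carrying a luciferase reporter gene fusion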
[6] = cells; assay type: functional, cell-based
[7] = Luminescence Cell-Based Dose Confirmation HTS to Identify Inhibitors of Platelet Dense Granule Release. [Related pubchem assays: 1663 (Primary HTS), 1678 (Summary of Project)]; assay type: functional
[8] = A Cell Based Secondary Assay To Explore Cytotoxicity of Compounds that Sensitize Mycobacterium Tuberculosis to Beta-Lactam Antibiotics.; assay type: functional
[9] = viability of HCT116 lacking mutant beta-catenin – cell-based, human colon tumor, dose response (AID 1045); assay type: functional;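 further: HCT116 colon tumor cells with beta catenin knocked out; cells exposed to compound for 60 hours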
[10] = viability of PTEN-deleted HCT116 cells – cell-based, HCT116 PTEN knockout, dose response (AID 1047); assay type: functional;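 further: HCT116 colon tumor cells with PTEN knocked out; cells exposed to compound for 60 hours before readout; potency for loss of cell viability measured by luminescence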
[11] = molecular target: Acyl-homoserine lactone acylase PvdQ (Pseudomonas aeruginosa (strain LESB58), UniProt Q9I194); assay: PvdQ acylase enzyme activity blockers – biochemical, fluorescence, plate reader and imaging, cherry-picks, dose response (AID 493231)
[12] = cells
[13] = molecular target: Lysosomal acid glucosylceramidase (Homo sapiens, UniProt P04062); assay: Dose response cell-based high throughput screening assay to identify enhancers of beta-glucosidase activity. [Related pubchem assays: 784 ]; assay type: functional
[14] = test system: H9c2; assay: cells; assay type: functional, cell-based; conditions: Rattus norvegicus, H9c2, Myocardium;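 further: confirmatory concentration-response retest of ultra-high-throughput screening hits for modulation of myocardial damage; cell death induced by hydrogen peroxide oxidative stress; compound pretreatment for 60 min then peroxide exposure for 2 h; potency is for protecting the cells against peroxide damage rather than for killing them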
[15] = molecular target: Intestinal-type alkaline phosphatase (Homo sapiens, UniProt P09923); assay: Dose Response confirmation of uHTS hits from a small molecule inhibitors of human intestinal alkaline phosphatase via a luminescent assay. [Related pubchem assays (depositor defined):AID2544, AID2574]; assay type: functional
[16] = molecular target: Eukaryotic translation initiation factor 4H (Homo sapiens, UniProt Q15056); assay: eIF4H binding inhibition – biochemical, uHTS, fluorescence polarization, translation initiation inhibitor project, primary screen (AID 2012)
[17] = molecular target: Polyadenylate-binding protein 1 (Homo sapiens, UniProt P11940); assay: blockers of PABP interaction with poly(A) – biochemical, fluorescence polarization, […] (AID 2014)
[18] = molecular target: T1, Heat shock 70 kDa protein 1A (Homo sapiens, UniProt P0DMV8); assay: small-molecule inhibition of Hsp70 – biochemical, TR-FRET (AID 786)
[19] = molecular target: T1, Heat shock 70 kDa protein 1A; assay: small molecules displacing fluorescent ligand from Hsp70 – biochemical, fluorescence polarization, primary screen (AID 583)
[20] = test system: Vero; assay: cells; assay type: functional, cell-based; conditions: Chlorocebus sabaeus
[21] = viability of uninfected HEp-2 cells – cell-based, HTS, cytotoxicity control for RSV inhibitor project, dose response (AID 2410); assay type: functional; conditions: human respiratory syncytial virus

Acyl-homoserine lactone acylase PvdQ, sequence (Q9I194 24-193 limits assumed): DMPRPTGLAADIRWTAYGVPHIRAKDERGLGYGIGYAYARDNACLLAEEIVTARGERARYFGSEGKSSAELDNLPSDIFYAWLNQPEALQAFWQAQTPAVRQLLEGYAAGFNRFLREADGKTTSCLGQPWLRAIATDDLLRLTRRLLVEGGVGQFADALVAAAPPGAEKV
Acyl-homoserine lactone acylase PvdQ, sequence (Q9I194 217-762 limits assumed): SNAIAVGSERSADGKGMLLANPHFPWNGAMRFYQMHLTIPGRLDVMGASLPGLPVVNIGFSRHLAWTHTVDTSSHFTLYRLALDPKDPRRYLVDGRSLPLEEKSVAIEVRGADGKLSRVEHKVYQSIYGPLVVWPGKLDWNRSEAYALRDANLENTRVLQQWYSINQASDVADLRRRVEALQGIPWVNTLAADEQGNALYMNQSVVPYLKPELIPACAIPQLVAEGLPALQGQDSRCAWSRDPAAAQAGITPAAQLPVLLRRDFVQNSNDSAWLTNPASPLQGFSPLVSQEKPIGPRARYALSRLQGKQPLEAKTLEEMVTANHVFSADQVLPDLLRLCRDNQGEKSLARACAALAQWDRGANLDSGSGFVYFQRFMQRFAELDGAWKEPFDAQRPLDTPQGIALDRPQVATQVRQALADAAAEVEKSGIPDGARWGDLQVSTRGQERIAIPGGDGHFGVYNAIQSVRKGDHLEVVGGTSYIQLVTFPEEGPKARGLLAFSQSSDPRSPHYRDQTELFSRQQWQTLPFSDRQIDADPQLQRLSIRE
T1 sequence (P0DMV8 whole entry): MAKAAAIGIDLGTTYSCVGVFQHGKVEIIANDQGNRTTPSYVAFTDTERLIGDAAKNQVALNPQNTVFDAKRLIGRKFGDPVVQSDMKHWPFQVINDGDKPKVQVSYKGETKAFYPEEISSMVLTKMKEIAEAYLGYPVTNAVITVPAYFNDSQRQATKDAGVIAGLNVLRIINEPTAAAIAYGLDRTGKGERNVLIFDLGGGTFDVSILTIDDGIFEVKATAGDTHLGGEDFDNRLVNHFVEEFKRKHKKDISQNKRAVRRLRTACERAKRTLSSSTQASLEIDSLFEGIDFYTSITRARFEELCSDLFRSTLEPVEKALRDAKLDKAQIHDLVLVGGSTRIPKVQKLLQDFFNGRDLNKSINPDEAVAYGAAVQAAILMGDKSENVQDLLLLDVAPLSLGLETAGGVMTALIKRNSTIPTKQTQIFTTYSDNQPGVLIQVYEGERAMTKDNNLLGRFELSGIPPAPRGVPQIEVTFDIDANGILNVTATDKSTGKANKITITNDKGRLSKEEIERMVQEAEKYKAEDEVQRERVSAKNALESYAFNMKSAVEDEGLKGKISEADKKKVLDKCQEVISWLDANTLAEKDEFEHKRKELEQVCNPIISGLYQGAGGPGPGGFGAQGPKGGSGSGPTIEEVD
Intestinal-type alkaline phosphatase, sequence (P09923 whole entry): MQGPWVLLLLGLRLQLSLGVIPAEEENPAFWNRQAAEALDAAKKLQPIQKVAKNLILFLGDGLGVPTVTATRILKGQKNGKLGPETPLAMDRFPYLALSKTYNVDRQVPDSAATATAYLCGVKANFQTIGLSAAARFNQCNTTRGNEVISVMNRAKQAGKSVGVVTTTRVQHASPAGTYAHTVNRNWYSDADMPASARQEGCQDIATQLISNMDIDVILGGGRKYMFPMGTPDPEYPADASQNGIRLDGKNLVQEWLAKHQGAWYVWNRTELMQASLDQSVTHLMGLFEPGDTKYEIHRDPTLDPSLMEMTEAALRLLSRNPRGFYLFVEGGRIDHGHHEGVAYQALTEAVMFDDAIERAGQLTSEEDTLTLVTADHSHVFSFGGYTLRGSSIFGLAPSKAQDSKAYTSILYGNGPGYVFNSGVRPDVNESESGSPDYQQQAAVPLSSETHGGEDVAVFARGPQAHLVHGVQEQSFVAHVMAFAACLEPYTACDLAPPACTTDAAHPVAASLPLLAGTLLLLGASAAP
Lysosomal acid glucosylceramidase, sequence (P04062 whole entry): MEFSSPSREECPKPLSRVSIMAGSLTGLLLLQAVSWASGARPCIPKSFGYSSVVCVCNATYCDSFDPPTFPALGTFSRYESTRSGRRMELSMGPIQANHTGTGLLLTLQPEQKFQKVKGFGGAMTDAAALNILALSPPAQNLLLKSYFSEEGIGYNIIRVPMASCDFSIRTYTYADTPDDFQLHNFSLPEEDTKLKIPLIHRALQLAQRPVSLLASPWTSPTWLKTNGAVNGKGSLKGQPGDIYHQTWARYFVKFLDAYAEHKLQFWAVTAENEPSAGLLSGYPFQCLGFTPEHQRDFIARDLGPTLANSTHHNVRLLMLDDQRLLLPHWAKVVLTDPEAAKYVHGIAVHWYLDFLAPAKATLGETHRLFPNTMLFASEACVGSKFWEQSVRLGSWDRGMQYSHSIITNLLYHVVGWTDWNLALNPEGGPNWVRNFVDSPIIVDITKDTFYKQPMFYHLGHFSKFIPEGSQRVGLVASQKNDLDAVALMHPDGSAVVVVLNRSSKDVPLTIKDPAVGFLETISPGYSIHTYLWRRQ
Polyadenylate-binding protein 1, sequence (P11940 whole entry): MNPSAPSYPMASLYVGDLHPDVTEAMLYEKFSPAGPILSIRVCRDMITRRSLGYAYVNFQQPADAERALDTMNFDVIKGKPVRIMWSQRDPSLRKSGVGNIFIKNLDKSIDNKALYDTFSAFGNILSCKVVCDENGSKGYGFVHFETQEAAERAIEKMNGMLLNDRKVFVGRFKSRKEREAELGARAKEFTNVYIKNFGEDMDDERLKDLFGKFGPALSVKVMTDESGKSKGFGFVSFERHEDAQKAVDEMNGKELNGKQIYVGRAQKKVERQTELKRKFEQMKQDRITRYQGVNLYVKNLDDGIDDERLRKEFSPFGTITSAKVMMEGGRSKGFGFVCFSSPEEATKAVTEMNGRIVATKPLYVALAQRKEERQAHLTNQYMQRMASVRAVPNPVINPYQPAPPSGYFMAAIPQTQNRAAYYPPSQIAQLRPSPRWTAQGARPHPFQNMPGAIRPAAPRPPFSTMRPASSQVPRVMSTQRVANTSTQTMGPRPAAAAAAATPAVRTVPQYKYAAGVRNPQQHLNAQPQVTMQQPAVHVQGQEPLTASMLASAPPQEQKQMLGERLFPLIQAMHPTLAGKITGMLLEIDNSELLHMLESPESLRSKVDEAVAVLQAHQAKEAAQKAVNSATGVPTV
Luciferin 4-monooxygenase, sequence (P08659 whole entry): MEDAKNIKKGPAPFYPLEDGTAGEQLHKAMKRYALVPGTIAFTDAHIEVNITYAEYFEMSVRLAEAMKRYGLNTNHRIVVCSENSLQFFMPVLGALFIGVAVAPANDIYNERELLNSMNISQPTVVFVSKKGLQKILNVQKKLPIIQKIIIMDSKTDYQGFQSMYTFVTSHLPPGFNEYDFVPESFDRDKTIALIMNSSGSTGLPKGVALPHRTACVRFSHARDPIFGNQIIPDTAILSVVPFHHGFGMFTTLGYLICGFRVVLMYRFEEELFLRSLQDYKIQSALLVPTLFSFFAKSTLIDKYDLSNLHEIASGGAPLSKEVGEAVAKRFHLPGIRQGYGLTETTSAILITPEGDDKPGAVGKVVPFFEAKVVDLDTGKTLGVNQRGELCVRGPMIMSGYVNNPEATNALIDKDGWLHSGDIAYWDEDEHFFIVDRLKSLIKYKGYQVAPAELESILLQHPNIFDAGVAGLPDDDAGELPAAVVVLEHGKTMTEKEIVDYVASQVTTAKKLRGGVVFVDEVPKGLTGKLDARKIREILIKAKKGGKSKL

**Q.** For `CCN(CC)c1ccc(C2=NNC(=O)CC2C)cc1[N+](=O)[O-]` (stereo not drawn), which EC50 [1] is on record?
**A.** < 0.1 µM (active)

**Q.** And the EC50 [2]?
**A.** < 0.1 µM (active)

**Q.** What about the EC50 [3] of the same molecule?
**A.** > 112 µM (not active)

**Q.** What about the EC50 [4] of the same molecule?
**A.** 0.123 µM (active)

**Q.** And the EC50 [5]?
**A.** 0.05 µM (active)

**Q.** And the EC50 [6]?
**A.** 0.194 µM (active)

**Q.** What about the EC50 [7] of the same molecule?
**A.** 0.504 µM (active)

**Q.** For `COc1ccc(OC)c(C2CC(c3c(O)nc4ccc(Cl)cc4c3-c3ccccc3)=NN2S(C)(=O)=O)c1` (stereo not drawn), which CC50 [8] is on record?
**A.** > 40 µM (active)

**Q.** What about the EC50 [9] of the same molecule?
**A.** 11.3 µM (active)

**Q.** What about the EC50 [10] of the same molecule?
**A.** 9.08 µM (active)

**Q.** For `CSc1nnc(-c2ccc([N+](=O)[O-])cc2)o1`, which AC50 [11] is on record?
**A.** 6.96 µM (active)

**Q.** Which IC50 [12] does the source give for `Cc1ccc(/C=N\NC(=O)C2CN(S(=O)(=O)c3ccccc3)CCN2S(=O)(=O)c2ccccc2)cc1` (stereo not drawn) here?
**A.** 13.6 µM (active)

**Q.** For `N#CC(c1ccc(Cl)cc1)c1ncc(C(F)(F)F)cc1Cl` (stereo not drawn), which AC50 [11] is on record?
**A.** 0.939 µM (active)

**Q.** Which EC50 [13] does the source give for `CN(CC1COc2ccccc2O1)c1nc(-c2cccnc2)nc2ccccc12` (stereo not drawn) here?
**A.** 2.65 µM (active)

**Q.** What about the IC50 [14] of the same molecule?
**A.** 24.4 µM (active)

**Q.** For `CC1Cn2c(nnc2C23CC4CC(CC(C4)C2)C3)S1` (stereo not drawn), which IC50 [15] is on record?
**A.** > 100 µM (inactive)

**Q.** What does the source list for `CCC(=O)N1c2ccc(S(=O)(=O)NCc3ccco3)cc2CC1C` (stereo not drawn)?
**A.** IC50 [16]: 10.2 µM (active); IC50 [17]: 24.1 µM (active)

**Q.** Which results are given for `CCn1nccc1C(=O)Nc1ccc(Cl)cn1`?
**A.** IC50 [18]: > 100 µM (not active); IC50 [19]: > 100 µM (not active)

**Q.** Which IC50 [12] does the source give for `Nc1ccc(C(=O)OCc2nc3cc4ccccc4cc3[nH]2)cc1` here?
**A.** 23.6 µM (active)

**Q.** And the IC50 [20]?
**A.** 3.67 µM (active)

**Q.** And the CC50 [21]?
**A.** 36.6 µM (active)
